Experimental data from PMC11648915, “Identification and development of TRPM4 antagonists to counteract neuronal excitotoxicity” (iScience, 2024).
Entries after “also recorded” stand apart in the source; their conditions may differ. Like-named read-outs stand apart in the source and are kept apart here.

What was measured:
[1] = tested on: broad panel of receptors, enzymes, and ion channels; experiment: SafetyScreen44 in vitro pharmacology panel (whole panel); assay type: binding; conditions: SafetyScreen44, 5 μM; active = inhibition above 50%
Procedure: We next used in vitro assays to test absorption, distribution, metabolism, excretion and toxicity (ADMET) parameters for selected compounds. We assessed compound absorption using parallel artificial membrane permeability (PAMPA) and Caco-2 cell permeability assays (cut-off criterion >2 × 10^−6 cm s^−1). Compound toxicity was evaluated by measuring inhibition of cytochrome P450 enzymes (CYP), the potassium channel human Ether-a-go-go Related Gene (hERG), and TRPM5, with all parameters meeting acceptable criteria. […] To assess potential off-target activity of our compounds that could be relevant for safety in humans, we conducted comprehensive in vitro pharmacology using the commercially available and widely used SafetyScreen44 interaction panel[60] covering eight protein families.
For in vitro pharmacological profiling and determination of off target effects compound were screened at a 5 μM in duplicate for their potential to bind to a broad panel of receptors, enzymes, and ion channels on a commercially available platform (Safetyscreen 44 Panel; Eurofins Cerep, Le Bois l'Evêque, B.P. 30001, 86 600 Celle l'Evescault, France), Study ID FR095-0009609).

[2] = In vivo pharmacokinetics after single i.p. or i.v. dose; conditions: female, C57BL/6J, mouse
Procedure: Next, to assess in vivo availability of the Series 1–3 compounds, we evaluated drug metabolism and pharmacokinetics (DMPK). We measured compound concentrations in plasma, heart, and brain at several time points after intraperitoneal (i.p.) or intravenous (i.v.) single-dose injections.
Half-life and bioavailability were calculated by noncompartmental analysis using the R package PK[84] (v1.3-6).

mouse TRPM4 = target: T1, mouse TRPM4 (Mus musculus, UniProt Q7TN37); experiment: Inside-out patch clamp, mouse TRPM4; assay type: cell-based; conditions: inside-out patch clamp configuration
T1 construct: Human TRPM4 (UniProtKB: Q8TD43-1) and mouse Trpm4 (UniProtKB: Q7TN37-1) were amplified via PCR; eGFP (C); expressed in transfected cells
T1 sequence (Q7TN37 whole entry): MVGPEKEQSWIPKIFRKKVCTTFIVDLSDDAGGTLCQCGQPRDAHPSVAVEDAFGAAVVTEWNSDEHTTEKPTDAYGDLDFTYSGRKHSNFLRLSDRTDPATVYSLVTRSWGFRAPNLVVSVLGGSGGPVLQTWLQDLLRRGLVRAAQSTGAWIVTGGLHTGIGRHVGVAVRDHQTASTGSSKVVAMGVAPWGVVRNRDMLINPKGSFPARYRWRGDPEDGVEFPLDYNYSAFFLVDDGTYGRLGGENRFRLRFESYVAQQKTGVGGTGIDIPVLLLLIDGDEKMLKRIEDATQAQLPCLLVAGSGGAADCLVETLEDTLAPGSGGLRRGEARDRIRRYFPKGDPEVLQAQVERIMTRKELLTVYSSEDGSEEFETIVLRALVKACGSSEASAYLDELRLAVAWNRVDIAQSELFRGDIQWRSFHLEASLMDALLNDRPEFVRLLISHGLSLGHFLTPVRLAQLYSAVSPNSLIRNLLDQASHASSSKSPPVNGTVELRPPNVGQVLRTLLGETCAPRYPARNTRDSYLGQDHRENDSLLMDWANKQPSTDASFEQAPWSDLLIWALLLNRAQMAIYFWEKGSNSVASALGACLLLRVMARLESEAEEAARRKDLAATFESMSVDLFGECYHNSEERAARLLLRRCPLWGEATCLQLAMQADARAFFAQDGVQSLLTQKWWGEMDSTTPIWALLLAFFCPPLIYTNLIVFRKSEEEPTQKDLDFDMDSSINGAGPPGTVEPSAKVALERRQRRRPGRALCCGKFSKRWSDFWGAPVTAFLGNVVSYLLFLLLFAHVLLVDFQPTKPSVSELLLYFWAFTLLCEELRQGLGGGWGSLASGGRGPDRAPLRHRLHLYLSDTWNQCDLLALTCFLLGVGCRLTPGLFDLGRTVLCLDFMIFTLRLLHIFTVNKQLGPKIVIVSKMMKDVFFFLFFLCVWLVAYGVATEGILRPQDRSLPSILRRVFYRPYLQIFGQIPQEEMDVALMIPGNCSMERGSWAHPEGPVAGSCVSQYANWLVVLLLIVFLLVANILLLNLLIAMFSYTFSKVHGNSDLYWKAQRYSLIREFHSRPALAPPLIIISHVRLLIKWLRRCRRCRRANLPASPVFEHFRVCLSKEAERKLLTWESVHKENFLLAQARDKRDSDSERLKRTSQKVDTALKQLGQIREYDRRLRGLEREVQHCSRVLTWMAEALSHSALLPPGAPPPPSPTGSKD

[3] = target: hsTRPM4 L907A, S924A and L907A/S924A mutants (Homo sapiens, UniProt Q8TD43, L907A/S924A); experiment: Whole-cell patch clamp of wild-type and binding-site mutant hsTRPM4; conditions: whole-cell voltage clamp
hsTRPM4 L907A, S924A and L907A/S924A mutants (Homo sapiens, UniProt Q8TD43, L907A/S924A), sequence (Q8TD43 whole entry L907A/S924A): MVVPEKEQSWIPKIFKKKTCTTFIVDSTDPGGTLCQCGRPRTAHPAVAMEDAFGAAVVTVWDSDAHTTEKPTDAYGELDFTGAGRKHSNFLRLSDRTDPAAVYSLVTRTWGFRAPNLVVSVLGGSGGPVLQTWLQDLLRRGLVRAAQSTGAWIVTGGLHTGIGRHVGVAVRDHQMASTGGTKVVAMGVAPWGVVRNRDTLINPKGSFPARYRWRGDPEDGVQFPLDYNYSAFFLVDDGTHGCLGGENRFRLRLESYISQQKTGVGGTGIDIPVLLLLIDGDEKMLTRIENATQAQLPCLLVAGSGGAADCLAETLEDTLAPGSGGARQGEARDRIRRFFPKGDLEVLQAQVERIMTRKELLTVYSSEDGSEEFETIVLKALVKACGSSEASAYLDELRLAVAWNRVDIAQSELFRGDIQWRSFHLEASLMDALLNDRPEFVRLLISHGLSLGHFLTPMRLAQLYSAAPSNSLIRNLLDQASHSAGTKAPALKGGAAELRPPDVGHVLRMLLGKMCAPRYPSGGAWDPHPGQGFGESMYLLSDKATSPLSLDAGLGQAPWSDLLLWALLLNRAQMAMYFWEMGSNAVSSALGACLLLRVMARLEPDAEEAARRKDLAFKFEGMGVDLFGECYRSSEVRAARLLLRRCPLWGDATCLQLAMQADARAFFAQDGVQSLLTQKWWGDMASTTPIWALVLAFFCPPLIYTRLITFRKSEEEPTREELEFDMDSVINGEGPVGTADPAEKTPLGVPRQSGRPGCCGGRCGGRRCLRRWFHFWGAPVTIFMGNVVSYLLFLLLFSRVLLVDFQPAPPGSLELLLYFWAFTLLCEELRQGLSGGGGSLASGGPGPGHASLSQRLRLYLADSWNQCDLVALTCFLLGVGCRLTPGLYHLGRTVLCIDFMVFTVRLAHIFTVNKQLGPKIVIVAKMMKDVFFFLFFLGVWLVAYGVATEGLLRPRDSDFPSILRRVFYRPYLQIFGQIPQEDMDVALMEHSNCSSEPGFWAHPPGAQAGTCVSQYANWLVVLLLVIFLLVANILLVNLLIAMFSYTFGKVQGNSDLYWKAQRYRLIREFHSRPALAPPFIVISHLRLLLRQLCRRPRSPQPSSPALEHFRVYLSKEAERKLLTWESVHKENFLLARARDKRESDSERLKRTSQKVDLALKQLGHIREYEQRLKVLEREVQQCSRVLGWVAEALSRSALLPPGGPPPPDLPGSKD
Description: (§1) Initially, we assessed the basic properties of the hsTRPM4 mutants using whole-cell patch clamp electrophysiology.

[4] = tested on: hsTRPM4 L907A, S924A and L907A/S924A mutants; experiment: as above; conditions: whole-cell voltage clamp, HEK293T
Description: as §1

human TRPM4 [5] = target: T2, human TRPM4 (Homo sapiens, UniProt Q8TD43); experiment: Inside-out patch clamp, human TRPM4; assay type: cell-based; design: Human TRPM4 (UniProtKB: Q8TD43-1) and mouse Trpm4 (UniProtKB: Q7TN37-1) were amplified via PCR; expressed in transfected cells; conditions: inside-out patch clamp configuration
T2 sequence (Q8TD43 whole entry): as the sequence (Q8TD43 whole entry L907A/S924A) above, with A907L, A924S counted along it
Procedure: Patch clamp recordings were conducted using an EPC10 patch clamp amplifier and Patchmaster software (HEKA, Germany). An Ag/AgCl wire served as the reference electrode in all experiments. […] Liquid junction potential was compensated before achieving gigaseal formation. All experiments were conducted at room temperature. Whole-cell currents were recorded in transiently transfected HEK293 cells expressing either wildtype human TRPM4, TRPM4-L907A, or TRPM4-S924A. Recordings involved a 400 ms increasing voltage ramp from –100 mV to +100 mV, initiated from a holding potential of 0 mV. The interval between each sweep was 2 seconds, with data sampled at 5 kHz. […] To identify TRPM4 currents, extracellular Na^+ was replaced with equimolar NMDG^+. […] Similar to whole-cell recordings, a 400 ms increasing voltage ramp from –100 mV to +100 mV was applied from a holding potential of 0 mV. The interval between sweeps was 2 seconds, and data were sampled at 5 kHz. […] TRPM4 currents were activated by 500 μM CaCl2 and deactivated by 10 mM EGTA, both added to the intracellular solution. Ca^2+ activation curves were fitted using a likelihood maximization algorithm to estimate the parameters for the sigmoidal fitting curves y-maximum, slope and midpoint as part of the R package sicegar (V0.2.4).

human TRPM4 [6] = target: T2, human TRPM4; experiment: QPatch automated patch clamp on TRPM4-expressing HEK293 cells; assay type: cell-based; conditions: hsTRPM4-expressing HEK293 cells
Procedure: QPatchHTX, an automated electrophysiology platform, was used in single hole mode. One day before use human TRPM4- or TRPM5-expressing HEK293 cells were seeded in a T75 flask at a density of 53k cells per cm^2 and at passages < 23. […] The extracellular solution was (in mM): CaCl2 (7), MgCl2 (2), KCl (5), HEPES (10), NaCl (70), NMDG (70); pH 7.4 with NaOH. The intracellular solution was (in mM): HEPES (10), NMDG (100), NaCl (50), EGTA (20), MgCl2 (1), CaCl2 (21); pH 7.2 with HCl. […] This protocol was repeated every 7 seconds. […] FFA was used as reference compound and applied cumulatively with each concentration incubating at a minimum of 20 voltage protocol runs (140 seconds) with the current after addition of FFA being calculated as full block. […] Each compound was measured at least 3 time independently.

[7] = tested on: primary mouse neuronal cultures; experiment: Glutamate-induced excitotoxicity assay (RealTime-Glo viability); assay type: cell-based; conditions: 5 μM
Procedure: To evaluate the in vitro efficacy of our developed compounds, we employed primary mouse neuronal cultures (PNCs) and conducted glutamate-induced excitotoxicity assays. Cultures were pre-treated with respective Series 1 and Series 3 compounds before glutamate exposure, and neuronal viability was assessed 15 h post-stimulation with glutamate.
Figure 3 Neuroprotective in vitro evaluation and in vivo pharmacokinetics (A) In vitro evaluation of compound activity on glutamate-induced excitotoxicity in mature primary neuronal cultures. Neuronal cultures were treated with 5 μM of the specified compound or vehicle control 5 h prior to glutamate stimulation, assessing compound rescue activity and toxicity relative to minimal (Vehicle +0 μM Glu) and maximal (Vehicle +50 μM Glu) excitotoxicity. Time course of a representative compound with virtual endpoint at 15 h post stimulation and assay window definition (left). Toxicity of compound treated cultures with and without glutamate stimulation (right). Data are represented as mean and 95% confidence interval; n ≥ 4; ∗p < 0.05, ∗∗p < 0.01, ∗∗∗p < 0.001; One-sample Wilcoxon signed-rank test. […] Mitochondrial membrane potential was measured by the mean fluorescence intensity of TMRE normalized to MitoTracker. Data are represented as mean ± SEM; n = 5; paired t-test. (C) In vivo pharmacokinetics of four selected compounds. Time course of compound concentration in the brain, heart, and plasma after a single dose via intraperitoneal (i.p.) or intravenous (i.v.) application. Data are represented as mean ± SEM. Half-life estimates by non-compartmental analysis are shown as vertical line and IC50 value as dashed horizontal line. (D) Compound concentration in the brain relative to respective IC50 concentrations after a single dose via intra-peritoneal or intra-venous routes. Also see Figure S6.
Excitotoxicity assays were performed using primary mouse neuronal cultures between 14 and 17 days in vitro (DIV). Cell viability was measured using RealTime-Glo MT Cell Viability Assay (Promega, catalog no. G9711) according to the manufacture protocol. Compounds were co-administered with RealTime-Glo reagents, and luciferase measurements were conducted using the Tecan-Spark M10 microplate reader with environmental control set to 37°C and 5% CO2. Neuronal cultures were stimulated with either glutamate or vehicle five hours after compound application and monitored for an additional 20 hours. To adjust for inter-well variability, arbitrary light units were normalized to a steady signal prior to glutamate addition for each well. Toxicity was calculated relative to the minimal cell viability at 15 hours post glutamate stimulation and cell viability of the PBS vehicle control.

[8] = tested on: primary mouse neuronal cultures; experiment: TMRE assay of mitochondrial membrane potential after glutamate; assay type: cell-based; conditions: 50 μM glutamate for 2 h, compound 30 min before
Procedure: We assessed its ability to inhibit the deterioration of mitochondrial membrane potential (ΔΨm) in response to glutamate-induced excitotoxicity. The ratio between the ΔΨm-dependent dye tetramethylrhodamine ethyl ester (TMRE) and the mitochondrial dye MitoTracker was quantified for this purpose.
Subsequently 50 μM glutamate was applied for in total 2 hours. Then, 20 nM TMRE dye (Abcam, ab113852), 500 nM MitoTracker dye (ThermoFisher, M7512), and 1 μM Hoechst 33342 were added after 1.5 hours glutamate stimulation for 30 minutes. Afterwards cells were washed two times in pre-warmed medium and were imaged immediately in preconditioned medium using a confocal microscope (Zeiss, LSM700) with 20-fold magnification and controlled atmosphere conditions (37°C, 5% CO2). Imaging time was less than 10 minutes per condition. We quantified the total MFI of the MitoTracker and TMRE dyes per cell. At least 50 cells per condition were quantified and the mean ratios of TMRE to Mitotracker per independent experiments were reported.

| Compound | Off-target binding in in vitro pharmacology panel [1] | half-life ([2]; brain, ip, read-out: Brain half-life (converted)) | half-life ([2]; brain, iv, read-out: Brain half-life (converted)) | half-life ([2]; heart, ip, read-out: Heart half-life (converted)) | half-life ([2]; heart, iv, read-out: Heart half-life (converted)) | half-life ([2]; plasma, ip, read-out: Plasma half-life (converted)) | half-life ([2]; plasma, iv, read-out: Plasma half-life (converted)) | Activity on mouse TRPM4 (mouse TRPM4) | Affinity in the L907A/S924A double mutant [3] | Current inhibition of hsTRPM4 L907A and S924A mutants versus wildtype [4] | Activity on human TRPM4 (human TRPM4 [5]) | IC50 (human TRPM4 [6]) | Protective effect in excitotoxicity assay ([7]; glutamate-stimulated primary mouse neuronal cultures) | Compound toxicity in neuronal cultures ([7]; primary mouse neuronal cultures) | Mitochondrial membrane potential (ΔΨm), TMRE / MitoTracker ratio [8] |
| --- | --- | --- | --- | --- | --- | --- | --- | --- | --- | --- | --- | --- | --- | --- | --- |
| O=C(CCc1ccccc1)Nc1ccc(Br)cc1C(=O)O [CMP233] | no off-target binding | 84 min | 18 min | 66 min | 78 min | 54 min | 30 min | highly effective in both species; also recorded: active on both species | completely abolished | significantly reduced current inhibition in at least one hsTRPM4 mutant variant | highly effective in both species; also recorded: active on both species | – | – | – | – |
| COc1cccc(-c2ccccc2NCc2nc3ccccc3o2)c1 [CMP312] | – | – | – | – | – | – | – | reduced activity on mouse TRPM4 compared to human TRPM4; also recorded: significantly less effective on mouse TRPM4 | completely abolished | significantly reduced current inhibition in at least one hsTRPM4 mutant variant | almost completely blocked | 4.87 µM | potent protective effects | non-toxicity | mitigated the glutamate-induced decrease in ΔΨm |
